Publication PMC6063804 (EJNMMI Research, 2018)
Where “and” joins values, the source holds several entries; their conditions need not be identical. Identical values can stand only once. Like-named read-outs stand apart in the source and are kept apart here.

Assays:
[1] = system: ion channel binding site of NMDA receptors; assay: [^18F]PK-209 brain PET, baseline versus S-ketamine infusion; format: in vivo, human; details: for V ND / k 3 / K i / % ΔKi: individual subjects S6–S10; for K i: net influx rate; for % ΔKi: percentage change from the baseline scan after ketamine
Procedure: In total, 20 PET scans were acquired on a Gemini TF-64 PET/CT scanner (Philips Medical Systems, Cleveland, OH, USA). Five subjects underwent [^18F]PK-209 test–retest (TRT) scans 31–61 days apart over a period of 211 days. Another five subjects underwent baseline and ketamine scans 13–161 days apart over a period of 258 days. At the start of each scan [^18F]PK-209 was injected as an intravenous bolus with a mean injected activity of 187 ± 7 MBq. All scans were performed between 12:00 and 15:00 h to minimize diurnal variation. Duration of daylight on each scan day was calculated to investigate seasonal changes in tracer binding. Dynamic PET data were acquired for 120 min and binned into 25 time frames (1 × 15, 3 × 5, 3 × 10, 4 × 60, 2 × 150, 2 × 300, 10 × 600 s). PET was followed by a low-dose CT (30 mAs, 120 kVp) for attenuation correction and localization. Data were reconstructed using a three-dimensional row action maximum likelihood reconstruction algorithm (3-D RAMLA). Acquired PET data were normalized and corrected for dead time, randoms, scatter, attenuation, and decay.
The (S+)-isomer of ketamine (0.5 mg · kg^−1) was dissolved in NaCl 50 mL and administered intravenously in a pseudo-steady state model with a sub-acute loading dose. First, ketamine was administered for 40 min at a rate of 0.006 mg · kg^−1 · min^−1 followed by a 130 min equilibrium phase at 0.002 mg · kg^−1 · min^−1. [^18F]PK-209 injection and start of PET were performed at 10 min into the equilibrium phase, following 0.26 mg · kg^−1 administration in the preceding 50 min.
Prior to the PET studies, structural three-dimensional coronal T1-weighted magnetic resonance images (MRI) were acquired for all subjects on a 1.5T Sonata scanner (Siemens Medical Solutions, Erlangen, Germany) with 160 coronal slices using echo time 3.97 ms, repetition time 2700 ms, flip angle 8°, and voxel size 1.0 × 1.5 × 1.0 mm^3. Subject motion was checked by visual inspection of the alignment of intrasubject PET frames, and no frames were excluded due to excessive movement. T1-weighted MRI scans were co-registered to an average of the PET frames from ~ 4–70 min p.i. using VINCI software. The co-registered MRI scans were segmented into gray matter (GM), white matter, and extra-cerebral fluid, using PVE-lab. Subsequently, 68 regions of interest (ROIs), including whole brain, were derived from the Hammers atlas and used to extract GM time-activity curves (TACs). As a last step, the TACs of 60 out of the 67 ROIs were redefined into nine volume-weighted ROIs by combining the radioactivity at each timepoint according to the equation Bq¯=∑iαi×Bqi/∑iαi , where αi is the volume (in mm^3) of region i, and Bqi the counts per mm^3 of region i. The selection of ROIs was based on the widespread NMDA-R availability in the brain: frontal, temporal, occipital, and parietal cortices; hippocampus; thalamus; insula; brainstem; dorsal striatum; and cerebellum, as well as whole brain GM from the Hammers atlas. Standardized uptake values (SUV; equalling measured activity divided by injected dose per body weight) were calculated for whole brain GM.
Using the metabolite-corrected arterial plasma input function, all GM TACs were fitted to single-tissue (1T2k), two-tissue irreversible (2T3k), and reversible (2T4k) compartmental models, both with and without an additional parameter for fractional blood volume (VB). The non-metabolite-corrected arterial whole blood curve was used as input function for VB. The optimal tracer kinetic model for describing in vivo kinetics of [^18F]PK-209 was determined according to the Akaike Information Criterion (AIC). Depending on the model preference, outcome measures were the net influx constant (Ki = K1 k3/(k2 + k3)) or the distribution volume (VT=K1/k2(1+k3/k4)) . For subsequent group level analysis (e.g., TRT variability and ketamine effects), all scans were analyzed using the same, most preferred, tracer kinetic model. […]

[2] = ex vivo rodent, cited from earlier work
[3] = biological target: ion channel of NMDA-R; parameters: method as in PMID 25648682; details: preclinical; read-out: apparent affinity against [^3H]MK-801 (Ki); cited from earlier work
[4] = cited from earlier work
[5] = system: ion channel of NMDA-R; parameters: method as in PMID 25451213; details: cited from earlier work
[6] = system: NMDA-R; details: cited from earlier work
[7] = 2T3k_VB, single scan IF, baseline scan
[8] = 2T3k_VB, single scan IF, ketamine scan
[9] = mean ketamine versus mean baseline, single scan IF

SMILES: CSc1ccc(Cl)c(NC(=N)N(C)c2cccc(OC[18F])c2)c1 [[^18F]PK-209, 3-(2-chloro-5-(methylthio)phenyl)-1-(3-([^18F]fluoromethoxy)phenyl)-1-methylguanidine]
- Mean baseline K i ([1]; 2T3k_VB, population IF): 0.0106 min⁻¹
- Mean ketamine K i ([1]; 2T3k_VB, population IF): 0.0107 min⁻¹
- Mean baseline K 1 ([1]; 2T3k_VB, single scan IF): 0.492 mL · cm^3 · min^−1
- Mean baseline K i ([1]; 2T3k_VB, single scan IF): 0.0129 min⁻¹
- Mean baseline V ND ([1]; 2T3k_VB, single scan IF): 9.25
- Mean baseline k 3 ([1]; 2T3k_VB, single scan IF): 0.0016 min⁻¹
- Mean ketamine K 1 ([1]; 2T3k_VB, single scan IF): 0.516 mL · cm^3 · min^−1
- Mean ketamine K i ([1]; 2T3k_VB, single scan IF): 0.0128 min⁻¹
- Mean ketamine V ND ([1]; 2T3k_VB, single scan IF): 9.22
- Mean ketamine k 3 ([1]; 2T3k_VB, single scan IF): 0.0015 min⁻¹
- V ND [1, 7]: 9.78 and 6.54 and 11.72 and 7.74 and 10.51
- k 3 [1, 7]: 0.0005 min⁻¹ and 0.0029 min⁻¹ and 0.0007 min⁻¹ and 0.0026 min⁻¹ and 0.0014 min⁻¹
- V ND [1, 8]: 9.66 and 9.75 and 10.30 and 6.56 and 9.84
- k 3 [1, 8]: 0.0014 min⁻¹ and 0.0012 min⁻¹ and 0.0008 min⁻¹ and 0.0020 min⁻¹
- Mean baseline K i ([1]; 2T3k_VB, within-subject IF): 0.0147 min⁻¹
- Mean ketamine K i ([1]; 2T3k_VB, within-subject IF): 0.0162 min⁻¹
- mean SUV90–120 ([1]; baseline scans): 1.53
- mean SUVAUC ([1]; baseline scans): 289 ± 51 SUV·min
- increase in mean SUV90–120 from baseline to ketamine scans ([1]; in vivo): 10%
- increase in whole brain SUVAUC following ketamine administration ([1]; individual subjects 6–10): 27% and 1% (2×) and 17% and 8%
- mean SUV90–120 ([1]; ketamine scans): 1.68
- mean SUVAUC ([1]; ketamine scans): 321 ± 66 SUV·min
- % Change of mean K i ([1]; mean ketamine versus mean baseline, population IF): 1%
- % Change of mean K 1 [1, 9]: 5%
- % Change of mean K i [1, 9]: −1%
- % Change of mean k 3 [1, 9]: −9%
- % Change of mean K i ([1]; mean ketamine versus mean baseline, within-subject IF): 10%
- K i ([1]; 2T3k_VB, population IF, baseline scan): 0.0071 min⁻¹ and 0.0150 min⁻¹ and 0.0183 min⁻¹ and 0.0114 min⁻¹ and 0.0011 min⁻¹
- K i ([1]; 2T3k_VB, population IF, ketamine scan): 0.0152 min⁻¹ and 0.0162 min⁻¹ and 0.0167 min⁻¹ and 0.0044 min⁻¹ and 0.0010 min⁻¹
- K i [1, 7]: 0.0046 min⁻¹ and 0.0182 min⁻¹ and 0.0083 min⁻¹ and 0.0193 min⁻¹ and 0.0143 min⁻¹
- K i [1, 8]: 0.0129 min⁻¹ and 0.0118 min⁻¹ and 0.0084 min⁻¹ and 0.0124 min⁻¹ and 0.0186 min⁻¹
- K i ([1]; 2T3k_VB, within-subject IF, baseline scan): 0.0038 min⁻¹ and 0.0170 min⁻¹ and 0.0220 min⁻¹ and 0.0200 min⁻¹ and 0.0105 min⁻¹
- K i ([1]; 2T3k_VB, within-subject IF, ketamine scan): 0.0128 min⁻¹ and 0.0169 min⁻¹ and 0.0201 min⁻¹ and 0.0118 min⁻¹ and 0.0192 min⁻¹
- % ΔKi ([1]; population IF): 113% and 8% and −9% and −62% and −10%
- % ΔKi ([1]; single scan IF): 182% and 1% and 30%
- % ΔKi ([1]; within-subject IF): 237% and 0% and 83%
- decrease in K1 after ketamine ([1]; subjects 8 and 9, respectively): 18% and 11%
- non-polar metabolite fraction in brain ([2]; 15 min p.i.): 18%
- non-polar metabolite fraction in brain ([2]; 60 min p.i.): 25%
- polar metabolites, contribution to total brain radioactivity ([2]; 60 min p.i.): 4%
- K i [3]: 18 nM
- LogDoct,7.4 [4]: 1.45
- selectivity for the ion channel of NMDA-R over other targets [5]: high selectivity
- reduction in mean SUVAUC after MK-801 administration ([6]; non-human primate): 15%
- volume of distribution (VT) compared with baseline ([6]; rhesus monkeys, IV 0.3 mg ∙ kg^−1 MK-801 30 min before PET): reduced the volume of distribution (VT) compared with baseline in two out of three subjects
- retention in NMDA-R-rich cortical regions relative to the cerebellum ([6]; rhesus monkeys): prolonged retention
